Source: PubChem BioAssay AID1963976 (Molecular Pharmacology Branch, DTP, NCI, 2024)

System: 435261-313-R-J1-PDC tumor spheroid viability
Assay: Anticancer human tumor 435261-313-R-J1-PDC patient-derived colon adenocarcinoma cell line growth inhibition [PI3K]
Conditions: spheroids with HUVEC and MSC; for viability, T/C: stronger effect = lower value
Procedure, shortened: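 Stroma-containing spheroids: tumor line, pooled-donor HUVEC, hMSC. Treatments: targeted agents with PI3K inhibitors. Dosing: clinically relevant, half-log spacing, 10 microM ceiling without known Cmax. Read-out: cell viability.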

[1] = curve of first compound, second compound 0.0316 µM
[2] = curve of first compound, second compound 0.1 µM
[3] = curve of first compound, second compound 0.316 µM
[4] = curve of first compound, second compound 1 µM
[5] = curve of first compound, second compound 3.16 µM
[6] = curve of first compound, second compound 10 µM
[7] = second compound 0.0316 µM, first compound 0.0316 µM
[8] = second compound 0.0316 µM, first compound 0.1 µM
[9] = second compound 0.0316 µM, first compound 0.316 µM
[10] = second compound 0.0316 µM, first compound 1 µM
[11] = second compound 0.0316 µM, first compound 3.16 µM
[12] = second compound 0.0316 µM, first compound 10 µM
[13] = second compound 0.1 µM, first compound 0.0316 µM
[14] = second compound 0.1 µM, first compound 0.1 µM
[15] = second compound 0.1 µM, first compound 0.316 µM
[16] = second compound 0.1 µM, first compound 1 µM
[17] = second compound 0.1 µM, first compound 3.16 µM
[18] = second compound 0.1 µM, first compound 10 µM
[19] = second compound 0.316 µM, first compound 0.0316 µM
[20] = second compound 0.316 µM, first compound 0.1 µM
[21] = second compound 0.316 µM, first compound 0.316 µM
[22] = second compound 0.316 µM, first compound 1 µM
[23] = second compound 0.316 µM, first compound 3.16 µM
[24] = second compound 0.316 µM, first compound 10 µM
[25] = second compound 1 µM, first compound 0.0316 µM
[26] = second compound 1 µM, first compound 0.1 µM
[27] = second compound 1 µM, first compound 0.316 µM
[28] = second compound 1 µM, first compound 1 µM
[29] = second compound 1 µM, first compound 3.16 µM
[30] = second compound 1 µM, first compound 10 µM
[31] = second compound 3.16 µM, first compound 0.0316 µM
[32] = second compound 3.16 µM, first compound 0.1 µM
[33] = second compound 3.16 µM, first compound 0.316 µM
[34] = second compound 3.16 µM, first compound 1 µM
[35] = second compound 3.16 µM, first compound 3.16 µM
[36] = second compound 3.16 µM, first compound 10 µM
[37] = second compound 10 µM, first compound 0.0316 µM
[38] = second compound 10 µM, first compound 0.1 µM
[39] = second compound 10 µM, first compound 0.316 µM
[40] = second compound 10 µM, first compound 1 µM
[41] = second compound 10 µM, first compound 3.16 µM
[42] = second compound 10 µM, first compound 10 µM
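Note: spheroids exposed to compounds for 7 days.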

SMILES: Cn1ncc(Cl)c1-c1cc(C(=O)NC(CN)Cc2cccc(F)c2)sc1Cl (stereo unspecified) + Cc1nc(NC(=O)N2CCCC2C(N)=O)sc1-c1ccnc(C(C)(C)C(F)(F)F)c1
- IC50 [1]: 579 nM
- IC50 [2]: 400 nM
- IC50 [3]: < 31.6 nM
- IC50 [4]: < 31.6 nM
- IC50 [5]: < 31.6 nM
- IC50 [6]: < 31.6 nM
- viability, T/C [7]: 83.5%
- viability, T/C [8]: 67.3%
- viability, T/C [9]: 71.8%
- viability, T/C [10]: 31.2%
- viability, T/C [11]: 18.6%
- viability, T/C [12]: 6.47%
- viability, T/C [13]: 58.5%
- viability, T/C [14]: 82%
- viability, T/C [15]: 51.6%
- viability, T/C [16]: 28.1%
- viability, T/C [17]: 21.7%
- viability, T/C [18]: 6.76%
- viability, T/C [19]: 42.9%
- viability, T/C [20]: 41%
- viability, T/C [21]: 38%
- viability, T/C [22]: 27.2%
- viability, T/C [23]: 14.2%
- viability, T/C [24]: 7.01%
- viability, T/C [25]: 31.9%
- viability, T/C [26]: 34.8%
- viability, T/C [27]: 29.2%
- viability, T/C [28]: 19.1%
- viability, T/C [29]: 16.2%
- viability, T/C [30]: 4.12%
- viability, T/C [31]: 15.7%
- viability, T/C [32]: 14.7%
- viability, T/C [33]: 15.8%
- viability, T/C [34]: 16.9%
- viability, T/C [35]: 11.9%
- viability, T/C [36]: 1.21%
- viability, T/C [37]: 9.08%
- viability, T/C [38]: 7.96%
- viability, T/C [39]: 6.42%
- viability, T/C [40]: 8.32%
- viability, T/C [41]: 4.5%
- viability, T/C [42]: 0.47%

SMILES: CNC(=O)c1ccc(N2C(=S)N(c3ccc(C#N)c(C(F)(F)F)c3)C(=O)C2(C)C)cc1F + CC(Nc1ncnc2nc[nH]c12)c1cc2cccc(Cl)c2c(=O)n1-c1ccccc1
- IC50 [1]: > 10000 nM
- IC50 [2]: > 10000 nM
- IC50 [3]: > 10000 nM
- IC50 [4]: > 10000 nM
- IC50 [5]: > 10000 nM
- IC50 [6]: > 10000 nM
- viability, T/C [7]: 106%
- viability, T/C [8]: 70.5%
- viability, T/C [9]: 72.3%
- viability, T/C [10]: 82.8%
- viability, T/C [11]: 99.8%
- viability, T/C [12]: 74.8%
- viability, T/C [13]: 101%
- viability, T/C [14]: 90.6%
- viability, T/C [15]: 111%
- viability, T/C [16]: 121%
- viability, T/C [17]: 79.7%
- viability, T/C [18]: 65.7%
- viability, T/C [19]: 78.5%
- viability, T/C [20]: 90.4%
- viability, T/C [21]: 103%
- viability, T/C [22]: 79.8%
- viability, T/C [23]: 102%
- viability, T/C [24]: 81.8%
- viability, T/C [25]: 95.1%
- viability, T/C [26]: 97.1%
- viability, T/C [27]: 75.9%
- viability, T/C [28]: 86.5%
- viability, T/C [29]: 73.1%
- viability, T/C [30]: 66.4%
- viability, T/C [31]: 101%
- viability, T/C [32]: 91.6%
- viability, T/C [33]: 69.5%
- viability, T/C [34]: 64.5%
- viability, T/C [35]: 59.3%
- viability, T/C [36]: 67.3%
- viability, T/C [37]: 55%
- viability, T/C [38]: 44.7%
- viability, T/C [39]: 64%
- viability, T/C [40]: 68.6%
- viability, T/C [41]: 58.5%
- viability, T/C [42]: 39.8%

SMILES: COc1c(OCCCN2CCOCC2)ccc2c3n(c(=NC(=O)c4cnc(N)nc4)nc12)CCN3
- viability, T/C (compound 0.0316 µM): 29% [middle of 6 runs]
- viability, T/C (compound 0.1 µM): 15.8% [middle of 6 runs]
- viability, T/C (compound 0.316 µM): 8.17% [middle of 6 runs]
- viability, T/C (compound 1 µM): 4.83% [middle of 6 runs]
- IC50 (compound alone, run of 06/13/2023): 13.3 nM [middle of 6 runs]

SMILES: CCCS(=O)(=O)Nc1ccc(F)c(C(=O)c2c[nH]c3ncc(-c4ccc(Cl)cc4)cc23)c1F + COc1c(OCCCN2CCOCC2)ccc2c3n(c(=NC(=O)c4cnc(N)nc4)nc12)CCN3
- IC50 (curve of first compound, second compound 0.00316 µM): 4610 nM
- IC50 (curve of first compound, second compound 0.01 µM): 3020 nM
- IC50 [1]: < 31.6 nM
- IC50 [2]: < 31.6 nM
- IC50 [3]: < 31.6 nM
- IC50 [4]: < 31.6 nM
- viability, T/C (second compound 0.00316 µM, first compound 0.0316 µM): 66.6%
- viability, T/C (second compound 0.00316 µM, first compound 0.1 µM): 77.1%
- viability, T/C (second compound 0.00316 µM, first compound 0.316 µM): 103%
- viability, T/C (second compound 0.00316 µM, first compound 1 µM): 83.7%
- viability, T/C (second compound 0.00316 µM, first compound 3.16 µM): 72.4%
- viability, T/C (second compound 0.00316 µM, first compound 10 µM): 4.06%
- viability, T/C (second compound 0.01 µM, first compound 0.0316 µM): 46.7%
- viability, T/C (second compound 0.01 µM, first compound 0.1 µM): 71.3%
- viability, T/C (second compound 0.01 µM, first compound 0.316 µM): 70.8%
- viability, T/C (second compound 0.01 µM, first compound 1 µM): 91.2%
- viability, T/C (second compound 0.01 µM, first compound 3.16 µM): 49.1%
- viability, T/C (second compound 0.01 µM, first compound 10 µM): 4.19%
- viability, T/C [7]: 25.7%
- viability, T/C [8]: 40.4%
- viability, T/C [9]: 27.9%
- viability, T/C [10]: 33.9%
- viability, T/C [11]: 31.7%
- viability, T/C [12]: 5.4%
- viability, T/C [13]: 24.7%
- viability, T/C [14]: 18.1%
- viability, T/C [15]: 22%
- viability, T/C [16]: 26.3%
- viability, T/C [17]: 22.1%
- viability, T/C [18]: 4.42%
- viability, T/C [19]: 7.13%
- viability, T/C [20]: 9.16%
- viability, T/C [21]: 10.6%
- viability, T/C [22]: 13.5%
- viability, T/C [23]: 13.9%
- viability, T/C [24]: 4.25%
- viability, T/C [25]: 4.51%
- viability, T/C [26]: 3.63%
- viability, T/C [27]: 4.99%
- viability, T/C [28]: 5.37%
- viability, T/C [29]: 7.06%
- viability, T/C [30]: 2.69%
